US10174016B2 (BAYER AKTIENGESELLSCHAFT, priority 2014, dated 2019)

Experiments:
human P2X3 receptor = human P2X3 receptor (Homo sapiens (Human), UniProt P56373); test: Intracellular calcium measurement (FLIPR, Fluo-4) of antagonist activity at human P2X3 receptors; assay type: cell-based; settings: human P2X3, FLIPR calcium assay, agonist α,β-Me-ATP; read-out: hP2X3 IC50
Summary of the method: (§1)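 Antagonism quantified from peak calcium fluorescence (Fluo-4, FLIPR, 90 sec read) evoked by EC80 α,β-Me-ATP, after a 30 min, 37° C. compound pretreatment in 1% DMSO. Human P2X3- or P2X2/3-expressing cells used; triplicate means fitted for IC50, percent maximal inhibition and Hill coefficient.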

human P2X2/3 receptor = human P2X2/3 receptor (Homo sapiens (Human), UniProt P56373+Q9UBL9); test: Intracellular calcium measurement (FLIPR, Fluo-4) of antagonist activity at human P2X2/3 receptors; assay type: cell-based; settings: human P2X2/3, FLIPR calcium assay, agonist α,β-Me-ATP; read-out: hP2X2/3 IC50
Summary of the method: as §1

Sequence of human P2X2/3 receptor (P56373 whole entry): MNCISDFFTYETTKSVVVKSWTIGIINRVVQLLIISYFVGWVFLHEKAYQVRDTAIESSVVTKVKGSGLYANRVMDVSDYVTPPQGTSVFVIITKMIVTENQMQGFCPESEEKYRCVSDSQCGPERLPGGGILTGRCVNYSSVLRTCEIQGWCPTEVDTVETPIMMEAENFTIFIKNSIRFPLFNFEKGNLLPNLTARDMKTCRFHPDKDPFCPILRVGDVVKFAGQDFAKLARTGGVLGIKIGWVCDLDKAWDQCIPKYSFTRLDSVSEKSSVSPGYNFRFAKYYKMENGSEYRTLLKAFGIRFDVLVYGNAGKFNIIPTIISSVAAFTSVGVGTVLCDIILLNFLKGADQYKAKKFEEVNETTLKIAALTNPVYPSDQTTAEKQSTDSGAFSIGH
Sequence of human P2X2/3 receptor (Q9UBL9 whole entry): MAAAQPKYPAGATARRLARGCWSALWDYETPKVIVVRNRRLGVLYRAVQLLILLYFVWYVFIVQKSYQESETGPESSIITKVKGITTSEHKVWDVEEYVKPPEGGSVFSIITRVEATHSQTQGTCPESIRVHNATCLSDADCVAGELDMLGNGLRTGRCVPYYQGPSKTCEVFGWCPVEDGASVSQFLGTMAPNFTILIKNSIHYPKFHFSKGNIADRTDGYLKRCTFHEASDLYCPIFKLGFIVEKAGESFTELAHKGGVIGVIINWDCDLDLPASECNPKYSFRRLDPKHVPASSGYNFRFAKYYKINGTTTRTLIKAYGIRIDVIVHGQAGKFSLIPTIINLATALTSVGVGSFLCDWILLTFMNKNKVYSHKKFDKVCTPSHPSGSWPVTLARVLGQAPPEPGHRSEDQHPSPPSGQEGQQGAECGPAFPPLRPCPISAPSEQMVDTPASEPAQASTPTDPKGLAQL
Sequence of human P2X3 receptor (P56373 whole entry): as the sequence (P56373 whole entry) above

Cc1cnc(-c2cc(OC[C@@H]3CN(C)CCO3)cc(C(=O)N[C@H](C)c3ccc(C(F)(F)F)nn3)c2)s1 [Example 374, 3-{[(2S)-4-methylmorpholin-2-yl]methoxy}-5-(5-methyl-1,3-thiazol-2-yl)-N-{(1R)-1-[6-(trifluoromethyl)pyridazin-3-yl]ethyl}benzamide]
IC50 (human P2X3 receptor): 55 nM | IC50 (human P2X2/3 receptor): 2560 nM

CCc1cnc(-c2cc(OC[C@@H]3CN(C)CCO3)cc(C(=O)N[C@H](C)c3cnc(C(F)(F)F)nc3)c2)s1 [Example 375, 3-(5-ethyl-1,3-thiazol-2-yl)-5-{[(2S)-4-methylmorpholin-2-yl]methoxy}-N-{(1R)-1-[2-(trifluoromethyl)pyrimidin-5-yl]ethyl}benzamide]
IC50 (human P2X3 receptor): 11 nM | IC50 (human P2X2/3 receptor): 185 nM

C[C@@H](NC(=O)c1cc(OC[C@@H]2CN(C)CCO2)cc(-c2ncc(Cl)s2)c1)c1cnc(C(F)(F)F)nc1 [Example 376, 3-(5-chloro-1,3-thiazol-2-yl)-5-{[(2S)-4-methylmorpholin-2-yl]methoxy}-N-{(1R)-1-[2-(trifluoromethyl)pyrimidin-5-yl]ethyl}benzamide]
IC50 (human P2X3 receptor): 32 nM | IC50 (human P2X2/3 receptor): 898 nM

CCc1cnc(-c2cc(OC[C@H]3CN(C)CCO3)cc(C(=O)N[C@H](C)c3cnc(C(F)(F)F)nc3)c2)s1 [Example 377, 3-(5-ethyl-1,3-thiazol-2-yl)-5-{[(2R)-4-methylmorpholin-2-yl]methoxy}-N-{(1R)-1-[2-(trifluoromethyl)pyrimidin-5-yl]ethyl}benzamide]
IC50 (human P2X3 receptor): 5 nM | IC50 (human P2X2/3 receptor): 273 nM

Cc1cnc(-c2cc(OC[C@@H]3CCCN3C)cc(C(=O)N[C@H](C)c3cnc(C(F)(F)F)nc3)c2)s1 [Example 378, 3-{[(2S)-1-methylpyrrolidin-2-yl]methoxy}-5-(5-methyl-1,3-thiazol-2-yl)-N-{(1R)-1-[2-(trifluoromethyl)pyrimidin-5-yl]ethyl}benzamide]
IC50 (human P2X3 receptor): 60 nM | IC50 (human P2X2/3 receptor): 3750 nM

Cc1cnc(-c2cc(OC[C@H]3CCCN3C)cc(C(=O)N[C@H](C)c3cnc(C(F)(F)F)nc3)c2)s1 [Example 379, 3-{[(2R)-1-methylpyrrolidin-2-yl]methoxy}-5 (5-methyl-1,3-thiazol-2-yl)-N-{(1R)-1-[2-(trifluoromethyl)pyrimidin-5-yl]ethyl}benzamide]
IC50 (human P2X3 receptor): 42 nM | IC50 (human P2X2/3 receptor): 2750 nM

Cc1cnc(-c2cc(OCC3CCN(C)CC3)cc(C(=O)N[C@H](C)c3cnc(C(F)(F)F)nc3)c2)s1 [Example 380, 3-[(1-methylpiperidin-4-yl)methoxy]-5-(5-methyl-1,3-thiazol-2-yl)-N-{(1R)-1-[2-(trifluoromethyl)pyrimidin-5-yl]ethyl}benzamide]
IC50 (human P2X3 receptor): 32 nM | IC50 (human P2X2/3 receptor): 2880 nM

Cc1cnc(-c2cc(OC[C@H]3CN(C(C)C)CCO3)cc(C(=O)N[C@H](C)c3cnc(C(F)(F)F)nc3)c2)s1 [Example 381, 3-(5-methyl-1,3-thiazol-2-yl)-5-{[(2R)-4-(propan-2-yl)morpholin-2-yl]methoxy}-N-{(1R)-1-[2-(trifluoromethyl)pyrimidin-5-yl]ethyl}benzamide]
IC50 (human P2X3 receptor): 16 nM | IC50 (human P2X2/3 receptor): 954 nM

Cc1cnc(-c2cc(OCC3(F)CN(C)C3)cc(C(=O)N[C@H](C)c3ccc(C(F)(F)F)nc3)c2)s1 [Example 386, 3-[(3-fluoro-1-methylazetidin-3-yl)methoxy]-5-(5-methyl-1,3-thiazol-2-yl)-N-{(1R)-1-[6-(trifluoromethyl)pyridin-3-yl]ethyl}benzamide]
IC50 (human P2X3 receptor): 24 nM | IC50 (human P2X2/3 receptor): 811 nM

CCc1cnc(-c2cc(OCC3(F)CN(C)C3)cc(C(=O)N[C@H](C)c3ccc(C(F)(F)F)nc3)c2)s1 [Example 387, 3-(5-ethyl-1,3-thiazol-2-yl)-5-[(3-fluoro-1-methylazetidin-3-yl)methoxy]-N-{(1R)-1-[6-(trifluoromethyl)pyridin-3-yl]ethyl}benzamide]
IC50 (human P2X3 receptor): 19 nM | IC50 (human P2X2/3 receptor): 461 nM

Cc1cnc(-c2cc(OC[C@H]3COCCN3C)cc(C(=O)N[C@H](C)c3ccc(C(F)(F)F)nn3)c2)s1 [Example 388, 3-{[(3R)-4-methylmorpholin-3-yl]methoxy}-5-(5-methyl-1,3-thiazol-2-yl)-N-{(1R)-1-[6-(trifluoromethyl)pyridazin-3-yl]ethyl}benzamide]
IC50 (human P2X3 receptor): 18 nM | IC50 (human P2X2/3 receptor): 1350 nM

Cc1cnc(-c2cc(OC[C@@H]3COCCN3C)cc(C(=O)N[C@H](C)c3ccc(C(F)(F)F)nn3)c2)s1 [Example 389, 3-{[(3S)-4-methylmorpholin-3-yl]methoxy}-5-(5-methyl-1,3-thiazol-2-yl)-N-{(1R)-1-[6-(trifluoromethyl)pyridazin-3-yl]ethyl}benzamide]
IC50 (human P2X3 receptor): 18 nM | IC50 (human P2X2/3 receptor): 1610 nM

CCN1CCO[C@@H](COc2cc(C(=O)N[C@H](C)c3cnc(C(F)(F)F)nc3)cc(-c3ncc(C)s3)c2)C1 [Example 390, 3-{[(2R)-4-ethylmorpholin-2-yl]methoxy}-5-(5-methyl-1,3-thiazol-2-yl)-N-{(1R)-1-[2-(trifluoromethyl)pyrimidin-5-yl]ethyl}benzamide]
IC50 (human P2X3 receptor): 17 nM | IC50 (human P2X2/3 receptor): 804 nM

Cc1cnc(-c2cc(OC[C@H]3CN(CC(F)F)CCO3)cc(C(=O)N[C@H](C)c3cnc(C(F)(F)F)nc3)c2)s1 [Example 391, 3-{[(2R)-4-(2,2-difluoroethyl)morpholin-2-yl]methoxy}-5-(5-methyl-1,3-thiazol-2-yl)-N-{(1R)-1-[2-(trifluoromethyl)pyrimidin-5-yl]ethyl}benzamide]
IC50 (human P2X3 receptor): 19 nM | IC50 (human P2X2/3 receptor): 840 nM

COC(=O)N1CCO[C@@H](COc2cc(C(=O)N[C@H](C)c3cnc(C(F)(F)F)nc3)cc(-c3ncc(C)s3)c2)C1 [Example 392, Methyl (2R)-2-{[3-(5-methyl-1,3-thiazol-2-yl)-5-({(1R)-1-[2-(trifluoromethyl)pyrimidin-5-yl]ethyl}carbamoyl)phenoxy]methyl}morpholine-4-carboxylate]
IC50 (human P2X3 receptor): 11 nM | IC50 (human P2X2/3 receptor): 411 nM

COC(=O)N1CCO[C@H](COc2cc(C(=O)N[C@H](C)c3cnc(C(F)(F)F)nc3)cc(-c3ncc(C)s3)c2)C1 [Example 393, methyl (2S)-2-{[3-(5-methyl-1,3-thiazol-2-yl)-5-({(1R)-1-[2-(trifluoromethyl)pyrimidin-5-yl]ethyl}carbamoyl)phenoxy]methyl}morpholine-4-carboxylate]
IC50 (human P2X3 receptor): 24 nM | IC50 (human P2X2/3 receptor): 1030 nM

Cc1cnc(-c2cc(OCC3CNC3)cc(C(=O)N[C@H](C)c3cnc(C(F)(F)F)nc3)c2)s1 [Example 394, 3-(Azetidin-3-ylmethoxy)-5-(5-methyl-1,3-thiazol-2-yl)-N-{(1R)-1-[2-(trifluoromethyl)pyrimidin-5-yl]ethyl}benzamide]
IC50 (human P2X3 receptor): 82 nM | IC50 (human P2X2/3 receptor): 3980 nM

Cc1cnc(-c2cc(OC[C@H]3COCC(=O)N3C)cc(C(=O)N[C@H](C)c3cnc(C(F)(F)F)nc3)c2)s1 [Example 395, 3-{[(3R)-4-methyl-5-oxomorpholin-3-yl]methoxyl}-5-(5-methyl-1,3-thiazol-2-yl)-N-{(1R)-1-[2-(trifluoromethyl)pyrimidin-5-yl]ethyl}benzamide]
IC50 (human P2X3 receptor): 30 nM | IC50 (human P2X2/3 receptor): 1310 nM

Cc1cnc(-c2cc(OC[C@H]3COCC(=O)N3)cc(C(=O)N[C@H](C)c3cnc(C(F)(F)F)nc3)c2)s1 [Example 396, 3-(5-methyl-1,3-thiazol-2-yl)-5-{[(3R)-5-oxomorpholin-3-yl]methoxy}-N-{(1R)-1-[2-(trifluoromethyl)pyrimidin-5-yl]ethyl}benzamide]
IC50 (human P2X3 receptor): 22 nM | IC50 (human P2X2/3 receptor): 1800 nM

Cc1cnc(-c2cc(OC[C@@H]3CN(C)C(=O)O3)cc(C(=O)N[C@H](C)c3cnc(C(F)(F)F)nc3)c2)s1 [Example 397, 3-{[(5S)-3-methyl-2-oxo-1,3-oxazolidin-5-yl]methoxy}-5-(5-methyl-1,3-thiazol-2-yl)-N-{(1R)-1-[2-(trifluoromethyl)pyrimidin-5-yl]ethyl}benzamide]
IC50 (human P2X3 receptor): 15 nM | IC50 (human P2X2/3 receptor): 1360 nM

Cc1cnc(-c2cc(OC[C@H]3CN(C)C(=O)O3)cc(C(=O)N[C@H](C)c3cnc(C(F)(F)F)nc3)c2)s1 [Example 398, 3-{[(5R)-3-methyl-2-oxo-1,3-oxazolidin-5-yl]methoxy}-5-(5-methyl-1,3-thiazol-2-yl)-N-{(1R)-1-[2-(trifluoromethyl)pyrimidin-5-yl]ethyl}benzamide]
IC50 (human P2X3 receptor): 17 nM | IC50 (human P2X2/3 receptor): 1800 nM

Cc1cnc(-c2cc(OC[C@H]3CN(C)C(=O)CO3)cc(C(=O)N[C@H](C)c3cnc(C(F)(F)F)nc3)c2)s1 [Example 399, 3-{[(2R)-4-methyl-5-oxomorpholin-2-yl]methoxy}-5-(5-methyl-1,3-thiazol-2-yl)-N-{(1R)-1-[2-(trifluoromethyl)pyrimidin-5-yl]ethyl}benzamide]
IC50 (human P2X3 receptor): 69 nM | IC50 (human P2X2/3 receptor): 1720 nM

Cc1cnc(-c2cc(OC[C@@H]3CNC(=O)CO3)cc(C(=O)N[C@H](C)c3cnc(C(F)(F)F)nc3)c2)s1 [Example 400, 3-(5-methyl-1,3-thiazol-2-yl)-5-{[(2S)-5-oxomorpholin-2-yl]methoxy}-N-{(1R)-1-[2-(trifluoromethyl)pyrimidin-5-yl]ethyl}benzamide]
IC50 (human P2X3 receptor): 59 nM | IC50 (human P2X2/3 receptor): 1480 nM

Cc1cnc(-c2cc(OC[C@@H]3CN(C)C(=O)CO3)cc(C(=O)N[C@H](C)c3cnc(C(F)(F)F)nc3)c2)s1 [Example 401, 3-{[(2S)-4-methyl-5-oxomorpholin-2-yl]methoxy}-5-(5-methyl-1,3-thiazol-2-yl)-N-{(1R)-1-[2-(trifluoromethyl)pyrimidin-5-yl]ethyl}benzamide]
IC50 (human P2X3 receptor): 30 nM | IC50 (human P2X2/3 receptor): 1470 nM

Cc1cnc(-c2cc(OC[C@@H]3COCC(=O)N3C)cc(C(=O)N[C@H](C)c3cnc(C(F)(F)F)nc3)c2)s1 [Example 402, 3-{[(3S)-4-methyl-5-oxomorpholin-3-yl]methoxy}-5-(5-methyl-1,3-thiazol-2-yl)-N-{(1R)-1-[2-(trifluoromethyl)pyrimidin-5-yl]ethyl}benzamide]
IC50 (human P2X3 receptor): 21 nM | IC50 (human P2X2/3 receptor): 1250 nM
